Data as given in patent publication US20120142685A1, “ORGANIC COMPOUNDS” (priority 2007, published 2012).

biological target: T1, protein kinase D1 (PKD1) (Homo sapiens, UniProt Q15139); test: PKD1 TR-FRET (LANCE) kinase assay; format: biochemical; settings: full length wild-type enzyme, 20 μM ATP; read-out: Inhibitory Activity PKD1
T1 construct: This assay is performed with full length wild-type enzyme that is expressed and purified from Sf9 insect cells; made in house; host or cells: Sf9 insect cells
T1 sequence (Q15139 1-912): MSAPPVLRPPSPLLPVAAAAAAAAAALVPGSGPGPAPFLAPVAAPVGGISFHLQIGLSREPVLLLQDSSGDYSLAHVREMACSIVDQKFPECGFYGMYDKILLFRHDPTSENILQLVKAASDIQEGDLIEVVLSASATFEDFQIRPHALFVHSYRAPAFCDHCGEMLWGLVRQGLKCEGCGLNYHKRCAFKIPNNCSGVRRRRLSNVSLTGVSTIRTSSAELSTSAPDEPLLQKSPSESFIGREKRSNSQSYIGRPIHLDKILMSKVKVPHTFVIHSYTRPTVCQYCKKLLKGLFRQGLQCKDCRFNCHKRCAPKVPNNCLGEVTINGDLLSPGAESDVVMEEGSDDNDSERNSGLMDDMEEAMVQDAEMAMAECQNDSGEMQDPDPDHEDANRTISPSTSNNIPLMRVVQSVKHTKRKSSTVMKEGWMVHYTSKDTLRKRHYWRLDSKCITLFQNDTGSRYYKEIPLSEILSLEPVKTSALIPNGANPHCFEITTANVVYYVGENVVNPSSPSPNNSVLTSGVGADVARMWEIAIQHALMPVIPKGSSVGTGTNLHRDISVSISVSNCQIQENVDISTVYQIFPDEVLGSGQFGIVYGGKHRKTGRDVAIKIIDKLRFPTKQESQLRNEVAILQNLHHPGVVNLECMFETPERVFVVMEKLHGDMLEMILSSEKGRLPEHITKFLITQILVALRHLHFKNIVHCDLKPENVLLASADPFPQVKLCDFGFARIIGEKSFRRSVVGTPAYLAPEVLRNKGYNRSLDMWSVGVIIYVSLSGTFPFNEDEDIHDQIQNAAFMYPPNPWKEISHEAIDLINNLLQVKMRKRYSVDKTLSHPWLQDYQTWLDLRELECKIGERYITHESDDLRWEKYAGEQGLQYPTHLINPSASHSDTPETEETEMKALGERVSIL
Source text: The assay to measure protein kinase D1 (PKD1) activity is a time-resolved fluorescence resonance transfer (TR-FRET) assay using PerkinElmer's LANCE™ technology. In this case, a biotinylated syntide-2 peptide is used as the substrate in this reaction. Phosphorylation of the syntide-2 substrate is detected by a specific antibody that recognizes the phosphorylated peptide. A second fluorophore, APC, is conjugated to streptavidin that binds the biotinylated syntide-2 peptide. For detection, the europium fluorophore can be excited by 340 nM light which then emits at 615 nM. Therefore, when the europium labeled secondary antibody binds on the phosphorylated peptide, it is brought into close contact with the APC and excites this fluorophore. The APC emission is at 665 nm and the 665 nM:615 nM ratio is a readout of PKD1 activity.
This assay is performed with full length wild-type enzyme that is expressed and purified from Sf9 insect cells. The reaction buffer consists of 35 mM Tris-HCl pH7.5, 5 mM MgCl2, 0.02% Tween-20, 20 μM ATP, 1 mM DTT and 0.2 μg/mL PKD1 enzyme. The enzyme reaction is initiated by the addition of 2 μM syntide-2 peptide substrate and the reaction carried out for 50 minutes at room temperature. The reaction is stopped by a stop/detection buffer consisting of 50 mM EDTA, 0.18 mg/mL rabbit polyclonal anti-phospho syntide-2 antibody, 0.5 nM europium labeled anti-rabbit IgG and 10 nM streptavidin conjugated APC. After a one hour incubation with the stop/detection buffer, the reaction is read on an Envision 2100 Reader using a LANCE™ Eu/APC dual protocol. As described above, a 665 nM:615 nM ratio is determined to measure substrate phosphorylation and enzyme activity. Compounds are typically tested in an 11 point dose response fashion in triplicate for each concentration used. IC50 values are calculated using an Activity Base (IDBS) software program.

Structure (SMILES) | IC50 [µM]
Cn1ccc(Nc2cc(-c3cc4cnccc4c(N4CCC(C(N)=O)CC4)n3)ccn2)n1 [Example 19, 1-{3-[2-(1-Methyl-1H-pyrazol-3-ylamino)pyridin-4-yl]-[2,6]naphthyridin-1-yl}piperidine-4-carboxylic acid amide] | 0.0004
NC(=O)C1CCN(c2nc(-c3ccnc(NC4CCCCC4)c3)cc3cnccc23)CC1 [Example 10, 1-[3-(2-Cyclohexylaminopyridin-4-yl)-[2,6]naphthyridin-1-yl]piperidine-4-carboxylic acid amide] | 0.083
CN(C)CCNc1nc(-c2ccnc(NC3CCCCC3)c2)cc2cnccc12 [Example 8, N-[3-(2-Cyclohexylaminopyridin-4-yl)-[2,6]naphthyridin-1-yl]-N′,N′-dimethylethane-1,2-diamine] | 0.055
OCCNc1nc(-c2ccnc(NC3CCCCC3)c2)cc2cnccc12 [Example 5, 2-[3-(2-Cyclohexylaminopyridin-4-yl)-[2,6]naphthyridin-1-ylamino]ethanol] | 0.382
CC(=O)N1CCN(c2nc(-c3ccnc(NC4CCCCC4)c3)cc3cnccc23)CC1 [Example 11, 1-{4-[3-(2-Cyclohexylaminopyridin-4-yl)-[2,6]naphthyridin-1-yl]piperazin-1-yl}ethanone] | 0.186
COc1cccc(Nc2cc(-c3cc4cnccc4c(NCCO)n3)ccn2)c1 [Example 7] | 0.055
CN(C)CCNc1nc(-c2ccnc(Nc3ccccc3)c2)cc2cnccc12 [Example 9, N,N-Dimethyl-N′-[3-(2-phenylaminopyridin-4-yl)-[2,6]naphthyridin-1-yl]-ethane-1,2-diamine] | 0.041
CNc1cc(-c2cc3cnccc3c(NC)n2)ccn1 [Example 2, 1-Methylamino-3-(2-methylaminopyridin-4-yl)-[2,6]-naphthyridine] | 0.833
c1cc2c(NC3CCNC3)nc(-c3ccnc(NC4CCCCC4)c3)cc2cn1 (stereo not drawn) [Example 14, [3-(2-Cyclohexylaminopyridin-4-yl)-[2,6]naphthyridin-1-yl]pyrrolidin-3-ylamine] | 0.001
O=C(NC1CC1)C1CCN(c2nc(-c3ccnc(NC4CCOCC4)c3)cc3cnccc23)CC1 [Example 17, 1-{3-[2-(Tetrahydropyran-4-ylamino)pyridin-4-yl]-[2,6]naphthyridin-1-yl}piperidine-4-carboxylic acid cyclopropylamide] | 0.002
COCCNc1cc(-c2cc3cnccc3c(N3CCNCC3)n2)ccn1 [Example 21, (2-Methoxyethyl)-[4-(1-piperazin-1-yl-[2,6]naphthyridin-3-yl)-pyridin-2-yl]amine] | 0.014
Cn1ccc(Nc2cc(-c3cc4cnccc4c(N4CCC5(CCNC5=O)CC4)n3)ccn2)n1 [Example 20, 8-{3-[2-(1-Methyl-1H-pyrazol-3-ylamino)pyridin-4-yl]-[2,6]naphthyridin-1-yl}-2,8-diaza-spiro[4.5]decan-1-one] | 0.017
c1cc2c(N3CCNCC3)nc(-c3ccnc(NC4CCCCC4)c3)cc2cn1 [Example 3, Cyclohexyl-[4-(1-piperazin-1-yl-[2,6]naphthyridin-3-yl)pyridin-2-yl]amine] | 0.0006
CN1CCN(c2nc(-c3ccnc(NC4CCCCC4)c3)cc3cnccc23)CC1 [Example 13, Cyclohexyl-{4-[1-(4-methylpiperazin-1-yl)-[2,6]naphthyridin-3-yl]pyridin-2-yl}amine] | 0.002
CNc1cc(-c2cc3cnccc3c(NCCCO)n2)ccn1 [Example 1] | 0.377
CCNC(=O)N1CCN(c2nc(-c3ccnc(Nc4ccn(C)n4)c3)cc3cnccc23)CC1 [Example 18, 4-{3-[2-(1-Methyl-1H-pyrazol-3-ylamino)pyridin-4-yl]-[2,6]naphthyridin-1-yl}piperazine-1-carboxylic acid ethylamide] | 0.02
O=C(NCCO)C1CCN(c2nc(-c3ccnc(NC4CCOCC4)c3)cc3cnccc23)CC1 [Example 16, 1-{3-[2-(Tetrahydropyran-4-ylamino)pyridin-4-yl]-[2,6]naphthyridin-1-yl}piperidine-4-carboxylic acid (2-hydroxyethyl)amide] | 0.002
CN(C)CC1CCN(c2nc(-c3ccnc(NC4CCCCC4)c3)cc3cnccc23)CC1 [Example 12, Cyclohexyl-{4-[1-(4-dimethylaminomethylpiperidin-1-yl)-[2,6]naphthyridin-3-yl]pyridin-2-yl}amine] | 0.207
CC(C)Nc1cc(-c2cc3cnccc3c(NCCO)n2)ccn1 [Example 6, 2-[3-(2-Isopropylaminopyridin-4-yl)-[2,6]naphthyridin-1-ylamino]ethanol] | 0.156
c1ccc(Nc2cc(-c3cc4cnccc4c(N4CCNCC4)n3)ccn2)cc1 [Example 4, Phenyl-[4-(1-piperazin-1-yl-[2,6]naphthyridin-3-yl)pyridin-2-yl]amine] | 0.011
c1cc2c(NC3CCCNC3)nc(-c3ccnc(NC4CCCCC4)c3)cc2cn1 (stereo not drawn) [Example 15, [3-(2-Cyclohexylaminopyridin-4-yl)-[2,6]naphthyridin-1-yl]piperidin-3-ylamine] | 0.014
